Test results taken from US12274679B2, “Substituted alkylphenols as HCN1 antagonists” (Cornell University, priority 2018, dated 2025).
Entries after “also recorded” stand apart in the source; their conditions may differ.

Experiments:
[1] = biological target: T1, HCN1 channels (Mus musculus, UniProt O88704); experiment: Two electrode voltage clamp of HCN1 channels expressed in Xenopus oocytes (shift in V1/2); assay type: cell-based; details: for potency as HCN1 inverse agonist compared with propofol: relative to propofol (2,6-di-iso-propylphenol); for offset of the 2,6-DTBP Hill fit of the V1/2 shift: right shift of the concentration-response relative to 2,6-DTBP, HCN1; for efficacy apparent in the concentration response (Hill fit): ΔV1/2 of HCN1, 2,6 di-alkylbenzene analogues; for inhibition of HCN1 channel gating: 20 min pre-incubation, 20 mM HPβCD + DMSO, compared with free 2,6-DTBP
T1 sequence (O88704 74-390 limits assumed): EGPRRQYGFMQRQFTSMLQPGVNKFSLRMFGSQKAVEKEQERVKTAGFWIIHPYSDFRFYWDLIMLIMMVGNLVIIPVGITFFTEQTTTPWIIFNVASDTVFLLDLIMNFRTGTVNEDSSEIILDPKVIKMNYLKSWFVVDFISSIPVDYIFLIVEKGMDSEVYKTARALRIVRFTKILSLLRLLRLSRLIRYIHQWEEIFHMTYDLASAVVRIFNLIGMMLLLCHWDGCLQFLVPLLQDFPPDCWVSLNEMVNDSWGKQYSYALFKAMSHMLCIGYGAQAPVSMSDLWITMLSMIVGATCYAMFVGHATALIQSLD

[2] = test system: HCN1 vs. HCN2-4; experiment: Effect on V1/2 of HCN1-4 channels (isoform selectivity); assay type: cell-based
[3] = test system: chronic constriction injury model of peripheral neuropathic pain; details: bolus administration; cited from earlier work
[4] = test system: normal nociception, locomotor activity, motor coordination, muscle strength; details: anti-hyperalgesic dose, cited from earlier work
[5] = test system: mechanical and thermal hyperalgesia after nerve ligation; experiment: Nerve ligation model: paw withdrawal probability and hindpaw withdrawal latency after cumulative i.p. dosing
[6] = Solubilisation in DMSO and dispersion into aqueous buffer; assay type: physicochemical
[7] = Whole blood concentration after oral gavage, LC-MS/MS; assay type: in vivo; details: rats, oral gavage in peanut oil, 0.58 mmole/kg, over 30 hours
Method: FIG. 29 is a graph showing the concentration of BP4L-18:1:1 in whole blood after administration to rats. Eight adult rats were gavaged with either 0.5 mL of peanut oil (n=4) or 0.5 mL of peanut oil containing 0.58 mmole/kg BP4L-18:1:1 (n=4). Blood samples were obtained at the indicated times. Following extraction using equi-volumes of acetonitrile, precipitation and filtration, blood concentrations of BP4L-18:1:1 were determined using LC-MS/MS. Dotted black lines indicate the concentrations of BP4L-18:1:1 for individual animals that received drug, the solid black line indicates the mean±SEM for the plus-drug cohort. Dotted and solid grey lines are, respectively, the concentrations of BP4L-18:1:1 detected in individual peanut oil-alone animals and the mean±SEM thereof. Grey lines superimpose and are indistinguishable from the time axis.
LCMS/MS was performed on an Agilent 1290 Infinity II UPLC system and Agilent 6495 Triple Quadrupole mass spectrometer. […] Quantitation was performed using multiple reaction monitoring in positive electrospray ionization mode using the transition 517.4→233.1 and a collision energy of 42. […]
Pharmacokinetic properties of exemplary compound BP4L-18:1:1 (compound 6) were evaluated in rats (FIG. 29). In particular, concentration of BP4L-18:1:1 in whole blood samples were determined over the course of 30 hours after oral administration.

[8] = test system: animal models of neuropathic pain; details: in vivo; cited from earlier work
[9] = simultaneous fit, absence and presence of 3 μM 2,6-DTBP

## CCC(C)c1ccc(O)c(C(C)CC)c1 (stereo not drawn) [2,4-DSBP, 2,4-di-sec-butylphenol]
[1]
  potency as HCN1 inverse agonist compared with propofol: less potent
  offset of the 2,6-DTBP Hill fit of the V1/2 shift: 23 fold

## CC(C)(C)c1ccc(O)c(C(C)(C)C)c1 [2,4-DTBP, 2,4-di-tert-butylphenol]
[1]
  potency as HCN1 inverse agonist compared with propofol: more potent
  offset of the 2,6-DTBP Hill fit of the V1/2 shift: 2 fold

## CCc1cccc(CC)c1O [2,6-DEP]
[1]
  efficacy apparent in the concentration response (Hill fit): partial

## CC(C)C1CCCC(C(C)C)C1O (stereo not drawn) [2,6-DIPCH]
[1]
  efficacy apparent in the concentration response (Hill fit): partial

## CC(C)c1cccc(C(C)C)c1O [2,6-DIPP, 2,6-di-iso-propylphenol]
[1]
  efficacy apparent in the concentration response (Hill fit): full

## CCC(C)c1cccc(C(C)CC)c1O (stereo not drawn) [2,6-DSBP, 2,6-di-sec-butylphenol]
[1]
  EC50: 370 µM
  potency as HCN1 inverse agonist compared with propofol: less potent
  offset of the 2,6-DTBP Hill fit of the V1/2 shift: 15 fold
  efficacy apparent in the concentration response (Hill fit): partial
[1]; [9]
  JcI (association constant, common site model N=4): 3,696±2,948
  JoI (association constant, common site model N=4): 881±1,801
[1]; ΔV1/2 in absence and presence of 3 μM 2,6-DTBP
  inverse agonist potency and efficacy: low potency, high efficacy, inverse agonist

## CC(C)(C)C1CCCC(C(C)(C)C)C1O (stereo not drawn) [2,6-DTBCH]
[1]
  efficacy apparent in the concentration response (Hill fit): partial

## CC(C)(C)c1cccc(C(C)(C)C)c1O [2,6-DTBP, 2,6-di-tert-butylphenol]
[2]
  selectivity for HCN1 vs. HCN2-4: retains propofol's selectivity for HCN1 vs. HCN2-4
[1]
  potency as HCN1 inverse agonist compared with propofol: more potent
  efficacy apparent in the concentration response (Hill fit): full
[3]
  reversal of mechanical hypersensitivity: ~45%
  reversal of thermal hypersensitivity: complete reversal
[4]
  normal nociception (pin prick test): does not disrupt normal nociception
[4]; open field, rotarod, horizontal wire
  locomotor activity, motor coordination and muscle strength: nor does it perturb
[5]
  mechanical and thermal hyperalgesia with respect to mechanical and thermal nociception: Selectively Suppresses Mechanical and Thermal Hyperalgesia
[5]; heat source intensity 15%
  thermal hyperalgesia (HPWL): ameliorates thermal hyperalgesia
[5]; heat source intensity 30%
  thermal nociception (HPWL): without overt effect

## CC(C)c1cc(N)cc(C(C)C)c1O [4-AP]
[1]
  HCN1 antagonism by 4-substituted 2,6-DIPPs: effective

## CC(C)c1cc(C(C)(C)C)cc(C(C)C)c1O [4-TBP]
[1]
  HCN1 antagonism by 4-substituted 2,6-DIPPs: fully effective

## CC(C)c1cc([N+](C)(C)C)cc(C(C)C)c1O [4-TMAP]
[1]
  HCN1 antagonism by 4-substituted 2,6-DIPPs: ineffective

## CC(Cl)CCCCCCCCC(=O)c1cc(C(C)(C)C)c(O)c(C(C)(C)C)c1 (stereo not drawn) [BP4C-11:0:1]
[6]
  dispersion into an aqueous buffer: reasonably easy to disperse
[1]; 10 and 100 μM, applied from the outside
  HCN1 antagonism of tethered, unanchored 2,6-DTBP: 4-adduct tolerance is retained

## CC(C)(C)c1cc(C(=O)CCCCCCCCC(O)CO)cc(C(C)(C)C)c1O (stereo not drawn) [BP4L-10:0:1]
[6]
  dispersion into an aqueous buffer: reasonably easy to disperse
[1]
  inhibition of HCN1 channel gating: largely ineffective

## CC(C)(C)c1cc(C(=O)CCCCCCCC/C=C/CCCCCCC(O)CO)cc(C(C)(C)C)c1O (stereo not drawn) [BP4L-18:1:1, (E)-1-(3,5-di-tert-butyl-4-hydroxyphenyl)-18,19-dihydroxynonadec-10-en-1-one]
[1]
  inhibition of HCN1 channel gating: concentration-dependent; also recorded: effectively inhibits channel gating with a potency and efficacy indistinguishable from free 2,6-DT BP
[7]
  absorption / bioavailability from whole blood concentration: absorbed demonstrating bioavailability

## CCN(c1ccccc1)c1cc(=NC)n(C)c(C)n1.Cl [ZD7288]
[8]
  anti-hyperalgesia: significant anti-hyperalgesia

## COc1cc2c(cc1OC)CC(=O)N(CCCN(C)C[C@H]1Cc3cc(OC)c(OC)cc31)CC2 [ivabradine]
[8]
  anti-hyperalgesia: significant anti-hyperalgesia
